In publication PMC4096046 (Bioorganic & medicinal chemistry letters, 2014):
In brackets after ≈: the same amount, converted by molar mass.

Tests used:
H37Rv Mtb = test: MIC against replicating H37Rv Mtb in GAS and 7H12 media; type: cell-based, Mycobacterium tuberculosis; settings: for MIC: Mycobacterium tuberculosis, H37RV, read-out: MIC mean +/- against replicating Mtb in medium: GAS (μg/mL), GAS medium, H37Rv, recalculated from μM
Mycobacterium avium = test: MIC against non-tubercular mycobacteria: M. avium; type: cell-based
Mycobacterium bovis BCG = test: MIC against non-tubercular mycobacteria: M. bovis BCG; type: cell-based; settings: Mycobacterium tuberculosis variant bovis BCG
Mycobacterium kansasii = test: MIC against non-tubercular mycobacteria: M. kansasii; type: cell-based

Cc1ccn2c(C(=O)NCc3ccccc3)c(C)nc2c1 [Compound 1, N-benzyl-2,7-dimethyl-imidazo[1,2-a]pyridine-3-carboxamide]
times more potent than 12 (H37Rv Mtb; MIC's of 0.2 and 70 μM): 350 times

Cc1ccc2nc(C)c(C(=O)NCc3ccccc3)n2c1 [Compound 2]
MIC (Mycobacterium avium): 16 µM (≈ 4.47 µg/mL) | MIC (H37Rv Mtb): 0.031 ± 0.002 µg/mL (≈ 0.111 µM) | MIC (Mycobacterium bovis BCG): 1 µM (≈ 0.279 µg/mL)

Cc1cnc2nc(C)c(C(=O)NCc3ccccc3)n2c1 [Compound 6, N-benzyl-2,6-dimethylimidazo[1,2-a]pyrimidine-3-carboxamide]
MIC (Mycobacterium kansasii): 19 µM (≈ 5.33 µg/mL) | MIC (H37Rv Mtb): 0.36 ± 0.06 µg/mL (≈ 1.28 µM) | MIC (Mycobacterium bovis BCG): 8 µM (≈ 2.24 µg/mL)

Cc1ccc2nc(C)c(C(=O)NCc3ccccc3)n2n1 [Compound 7, N-benzyl-2,6-dimethylimidazo[1,2-b]pyridazine-3-carboxamide]
MIC (H37Rv Mtb): 17.9 ± 0.5 µg/mL (≈ 63.9 µM)

Cc1ccc2c(C(=O)NCc3ccccc3)c(C)[nH]c2c1 [Compound 8, N-Benzyl-2,6-dimethyl-1H-indole-3-carboxamide]
MIC (H37Rv Mtb): 12.2 ± 0.3 µg/mL (≈ 43.8 µM)

Cc1ccc2c(C(=O)NCc3ccccc3)n[nH]c2c1 [Compound 9, N-benzyl-6-methyl-1H-indazole-3-carboxamide]
MIC (H37Rv Mtb): 10.8 ± 0.9 µg/mL (≈ 40.7 µM)

Cc1ccn2c(C(=O)NCc3ccccc3)nnc2c1 [Compound 10, N-benzyl-7-methyl-[1,2,4]triazolo[4,3-a]pyridine-3-carboxamide]
negative effect on potency relative to compound 2 (H37Rv Mtb; GAS medium, MIC of 0.1 and 101 μM): 1000 x | MIC (H37Rv Mtb): 27 ± 1.6 µg/mL (≈ 101 µM)

Cc1cc(C)n2nc(C(=O)NCc3ccccc3)nc2n1 [Compound 11, N-benzyl-5,7-dimethyl-[1,2,4]triazolo[1,5-a]pyrimidine-2-carboxamide]
MIC (H37Rv Mtb): 35.4 ± 0.8 µg/mL (≈ 126 µM)

Cc1ccn2c(C)c(C(=O)NCc3ccccc3)nc2c1 [Compound 12, N-benzyl-3,7-dimethylimidazo[1,2-a]pyridine-2-carboxamide]
MIC (H37Rv Mtb): 19.6 ± 2.5 µg/mL (≈ 70.2 µM)
